Results published in patent US20240043434A1, “COCRYSTALS OF UPADACITINIB” (AbbVie Inc., priority 2021, published 2024).
Values after ≈ are worked out from the molar mass of the structure shown. Where two headings read alike, the source gives them in different places.

Key:
[1] = Aqueous solubility determination of upadacitinib cocrystals; assay type: physicochemical; conditions: aqueous solubility in water at 37° C., equilibrated by end-over-end tumbling for up to 24 hours
Procedure: A solubility study was performed to determine the aqueous solubility for five of the upadacitinib cocrystals disclosed herein. Sufficiently sized samples of the solid cocrystals were added to individual vials along with a measured volume of water. The water-cocrystal mixtures were equilibrated at 37° C. by end-over-end tumbling for up to 24 hours. The amount of dissolved solid was determined for each sample.

[2] = Storage stability determination of upadacitinib cocrystals (open dish, 40° C./75% RH); assay type: physicochemical; design: reference not given here; conditions: chemical purity after storage in open dish at 40° C./75% RH up to one month
Procedure: A storage stability study was performed to determine the short term stability for each of the five upadacitinib cocrystals disclosed herein. Samples of each upadacitinib cocrystal were stored in an open dish at 40° C./75% relative humidity (RH) for up to one month.

SMILES: CC[C@@H]1CN(C(=O)NCC(F)(F)F)C[C@@H]1c1cnc2cnc3[nH]ccc3n12.O=C(O)c1ccc(O)c(O)c1 [3,4-dihydroxybenzoic acid cocrystal]
- Solubility [1]: 11300 ± 200 µg/mL
- Purity [2]: 103.9%

SMILES: CC(=O)Nc1ccc(C(=O)O)cc1.CC[C@@H]1CN(C(=O)NCC(F)(F)F)C[C@@H]1c1cnc2cnc3[nH]ccc3n12 [4-acetamidobenzoic acid cocrystal]
- Solubility [1]: 2530 ± 30 µg/mL
- Purity [2]: 100.0%

SMILES: CC[C@@H]1CN(C(=O)NCC(F)(F)F)C[C@@H]1c1cnc2cnc3[nH]ccc3n12.O=C(O)c1ccc(O)c([N+](=O)[O-])c1 [4-hydroxy-3-nitrobenzoic acid cocrystal]
- Solubility [1]: 1470 ± 10 µg/mL
- Purity [2]: 99.9%

SMILES: CC[C@@H]1CN(C(=O)NCC(F)(F)F)C[C@@H]1c1cnc2cnc3[nH]ccc3n12.O=C(O)c1ccc(O)cc1 [4-hydroxybenzoic acid cocrystal]
- Solubility [1]: 4290 ± 50 µg/mL
- Purity [2]: 102.7%

SMILES: CC[C@@H]1CN(C(=O)NCC(F)(F)F)C[C@@H]1c1cnc2cnc3[nH]ccc3n12 [Upadacitinib Form I, (3S,4R)-3-ethyl-4-(3H-imidazo[1,2-a]pyrrolo[2,3-e]pyrazin-8-yl)-N-(2,2,2-trifluoroethyl)pyrrolidine-1-carboxamide, reference compound]
- Solubility ([1]; thermodynamic from solid, read-out: Solubility): 370 ± 4 µg/mL (≈ 973 µM)
- Purity [2]: 100.2%

SMILES: CCC1CN(C(=O)NCC(F)(F)F)CC1c1cnc2cnc3[nH]ccc3n12.O=C(O)c1cc(O)c(O)c(O)c1 (stereo not drawn) [gallic acid cocrystal]
- Solubility [1]: 5130 ± 50 µg/mL
- Purity [2]: 103.8%
